US6737383B1, “Herbicidal oxadiazolidines” (priority 1999, dated 2004)

Experiments:
smallflower flatsedge = assay: Test B flood test smallflower flatsedge; assay type: in vivo, Cyperus difformis; conditions: for Plant response rating, S. Flatsedge (0 to 10 scale, 0 is no effect, 10 is complete control): Rate 62 g/ha, Pre-emergence; for Plant response rating, S. Flatsedge (0 to 10 scale, 0 is no effect, 10 is complete control) / S. Flatsedge plant response rating (0 to 10 scale, 0 is no effect, 10 is complete control): flood test species, visual evaluation after twelve to sixteen days; for S. Flatsedge plant response rating (0 to 10 scale, 0 is no effect, 10 is complete control): Rate 125 g/ha, under heading Pre-emergence
Method: (§1) At the same time, these crop and weed species were also treated with postemergence applications of test chemicals formulated in the same manner. Plants ranged in height from 2 to 18 cm (1- to 4-leaf stage) for postemergence treatments. Plant species in the flood test consisted of rice (Oryza sativa), smallflower flatsedge (Cyperus difformis), duck salad (Heteranthera limosa) and bamyardgrass (Echinochloa crus-galli) grown to the 2-leaf stage for testing. Treated plants and controls were maintained in a greenhouse for twelve to sixteen days, after which all species were compared to controls and visually evaluated. Plant response ratings, summarized in Table B, are based on a scale of 0 to 10 where 0 is no effect and 10 is complete control. A dash (−) response means no test result.

duck salad = assay: Test B flood test duck salad; assay type: in vivo, Heteranthera limosa; conditions: for Plant response rating, Ducksalad (0 to 10 scale, 0 is no effect, 10 is complete control): Rate 62 g/ha, Pre-emergence; for Plant response rating, Ducksalad (0 to 10 scale, 0 is no effect, 10 is complete control) / Ducksalad plant response rating (0 to 10 scale, 0 is no effect, 10 is complete control): flood test species, visual evaluation after twelve to sixteen days; for Ducksalad plant response rating (0 to 10 scale, 0 is no effect, 10 is complete control): Rate 125 g/ha, under heading Pre-emergence
Method: as §1

bamyardgrass = assay: Test B flood test barnyardgrass; assay type: in vivo, Echinochloa crus-galli; conditions: for Plant response rating, Barnyardgrass (0 to 10 scale, 0 is no effect, 10 is complete control): Rate 62 g/ha, Pre-emergence; for Plant response rating, Barnyardgrass (0 to 10 scale, 0 is no effect, 10 is complete control) / Barnyardgrass plant response rating (0 to 10 scale, 0 is no effect, 10 is complete control): flood test species, visual evaluation after twelve to sixteen days; for Barnyardgrass plant response rating (0 to 10 scale, 0 is no effect, 10 is complete control): Rate 125 g/ha, under heading Pre-emergence
Method: as §1

rice = assay: Test B flood test rice; assay type: in vivo, Oryza sativa
Method: as §1

[1] = Rate 250 g/ha, Pre-emergence (flood test species), scale 0 to 10, 0 is no effect, 10 is complete control
[2] = Rate 500 g/ha, Pre-emergence section of Table B, 0 to 10 scale (0 no effect, 10 complete control)

SMILES: CCCCCCn1c(=O)on(C(=O)N(c2ccc(Cl)cc2)C(C)C)c1=O [Compound 529]
- Plant response rating, S. Flatsedge (0 to 10 scale, 0 is no effect, 10 is complete control) (smallflower flatsedge): 0
- S. Flatsedge plant response rating (0 to 10 scale, 0 is no effect, 10 is complete control) (smallflower flatsedge): 0
- S. Flatsedge plant response rating (smallflower flatsedge; [1]): 0
- S. Flatsedge plant response rating (smallflower flatsedge; [2]): 0
- Plant response rating, Ducksalad (0 to 10 scale, 0 is no effect, 10 is complete control) (duck salad): 0
- Ducksalad plant response rating (0 to 10 scale, 0 is no effect, 10 is complete control) (duck salad): 0
- Ducksalad plant response rating (duck salad; [1]): 0
- Ducksalad plant response rating (duck salad; [2]): 0
- Plant response rating, Barnyardgrass (0 to 10 scale, 0 is no effect, 10 is complete control) (bamyardgrass): 0
- Barnyardgrass plant response rating (0 to 10 scale, 0 is no effect, 10 is complete control) (bamyardgrass): 0
- Barnyardgrass plant response rating (bamyardgrass; [1]): 0
- Barnyardgrass plant response rating (bamyardgrass; [2]): 2

SMILES: CC(C)N(C(=O)n1oc(=O)n(CC2CC2)c1=O)c1ccc(Cl)cc1 [Compound 539]
- Plant response rating, Rice (0 to 10 scale, 0 is no effect, 10 is complete control) (rice; Rate 62 g/ha, flood test species, Pre-emergence, visual evaluation after twelve to sixteen days): 0
- Rice plant response rating (0 to 10 scale, 0 is no effect, 10 is complete control) (rice; Rate 125 g/ha, under heading Pre-emergence, flood test species, visual evaluation after twelve to sixteen days): 0
- Rice plant response rating (rice; [1]): 0
- Rice plant response rating (rice; [2]): 0
- Plant response rating, S. Flatsedge (0 to 10 scale, 0 is no effect, 10 is complete control) (smallflower flatsedge): 0
- S. Flatsedge plant response rating (0 to 10 scale, 0 is no effect, 10 is complete control) (smallflower flatsedge): 0
- S. Flatsedge plant response rating (smallflower flatsedge; [1]): 0
- S. Flatsedge plant response rating (smallflower flatsedge; [2]): 0
- Plant response rating, Ducksalad (0 to 10 scale, 0 is no effect, 10 is complete control) (duck salad): 0
- Ducksalad plant response rating (0 to 10 scale, 0 is no effect, 10 is complete control) (duck salad): 0
- Ducksalad plant response rating (duck salad; [1]): 0
- Ducksalad plant response rating (duck salad; [2]): 0
- Plant response rating, Barnyardgrass (0 to 10 scale, 0 is no effect, 10 is complete control) (bamyardgrass): 0
- Barnyardgrass plant response rating (0 to 10 scale, 0 is no effect, 10 is complete control) (bamyardgrass): 0
- Barnyardgrass plant response rating (bamyardgrass; [1]): 0
- Barnyardgrass plant response rating (bamyardgrass; [2]): 0
